In paper PMC11597089, “Kratom Alkaloids: A Blood–Brain Barrier Specific Membrane Permeability Assay-Guided Isolation and Cyclodextrin Complexation Study” (Molecules, 2024):

Assays:
Type in all cases: physicochemical
[1] = ACE complex stability, PYR-β-CD; settings: 6-monodeoxy-6-pyrrolidine-β-CD, positively charged, 30 mM phosphate buffer pH 7.4, 25 °C
Method: (§1) To investigate the CD complexation behavior of the four kratom alkaloids, we aimed to develop an ACE method for a systematic comparative study. […] To ensure sufficient buffer capacity and to avoid excessive current and Joule heat generation, the buffer concentration was set to 30 mM, and the applied voltage was 15 kV.
(§2) The ACE experiments were performed by using Agilent 7100 and HP^3DCE instruments (Agilent Technologies, Waldbronn, Germany). Untreated fused silica capillaries (total length of 48.5 cm, effective length of 40 cm, inner diameter of 50 μm) were purchased from Agilent Technologies. The new capillaries were conditioned with a 1 M NaOH wash for 1 h, followed by a 30 min wash each with 0.1 M NaOH and purified water. Prior to all runs, the capillary was preconditioned by rinsing with background electrolyte for 3 min. During the measurements, 30 mM phosphate buffer at pH 7.4 (30 mM Na2HPO4-NaOH) was used. The background electrolyte contained CDs at various concentrations. Stock solutions of the studied kratom alkaloids (mitragynine, paynantheine, speciogynine, speciociliatine) were prepared separately in methanol (1 mg/mL), and, right before the measurements, appropriate dilutions with purified water were used to prepare the sample solutions, applying 0.1% DMSO as the electroosmotic flow (EOF) marker. The samples were injected hydrodynamically at 40 mbar for 3 s. The positive polarity voltage was set to 15 kV, and the capillary was set to 25 °C. The electropherograms were recorded at four wavelengths (200 nm, 210 nm, 215 nm, and 220 nm), and the data were evaluated at 215 nm. In each case, three parallel measurements were performed. The measurements were evaluated using Origin and CEval software (v. 0.6i3).
(§3) In order to determine the complex stability constants that characterized the strength of the complexes, the first step was to determine the effective mobility of the analyte at specific CD concentrations. Triangular peaks caused by electromigration dispersion are often observed in ACE measurements.
(§4) Assuming a 1:1 complexation ratio and that the equilibrium CD concentration is almost equal to the total CD concentration, a relationship between the effective mobility relative to the EOF and the complex stability constant can be described by Function (4) (4) μeff=μA+μACDKstabCD/1+KstabCD where µeff is the effective mobility of the analyte, µA and µACD are the free and complexed analyte mobilities, [CD] is the concentration of the selector, and Kstab is the complex stability constant.
(§5) In order to calculate the exact, apparent, averaged complex stability constant values, viscosity correction and ionic strength correction were used.

[2] = ACE complex stability, HxDMS-α-CD; settings: hexakis-(2,3-O-dimethyl, 6-O-sulfo)-α-CD, 30 mM phosphate buffer pH 7.4, 25 °C
Method: as §1, §2, §3, §4, §5

[3] = ACE complex stability, SBE-β-CD DS~4; settings: sulfobutyl-ether-β-CD DS~4, 30 mM phosphate buffer pH 7.4, 25 °C
Method: as §1, §2, §3, §4, §5

[4] = ACE complex stability, CM-α-CD; settings: carboxymethylated-α-CD DS~3.5, 30 mM phosphate buffer pH 7.4, 25 °C
Method: as §1, §2
as §3, with “measurements. […]” for “measurements.”

[5] = ACE complex stability, HMDiSu-β-CD; settings: heptakis-(2-O-methyl, 3,6-O-disulfo)-β-CD, 30 mM phosphate buffer pH 7.4, 25 °C
Method: as §1, §2, §3, §4, §5

[6] = ACE complex stability, HDMS-β-CD; settings: heptakis-(2,3-O-dimethyl, 6-O-sulfo)-β-CD, 30 mM phosphate buffer pH 7.4, 25 °C
Method: as §1, §2, §3, §4, §5

[7] = ACE complex stability, MePYR-β-CD; settings: mono-6^A-(N-methyl-pyrrolidine)-β-CD, positively charged, 30 mM phosphate buffer pH 7.4, 25 °C
Method: as §1, §2, §3, §4, §5

[8] = ACE complex stability, Sualfadex; settings: hexakis-(6-deoxy-6-(2-carboxyethyl)thio)-α-CD, 30 mM phosphate buffer pH 7.4, 25 °C
Method: as §1, §2, §3, §4, §5

[9] = ACE complex stability, Succ-β-CD; settings: succinyl-β-CD DS~6, 30 mM phosphate buffer pH 7.4, 25 °C
Method: as §1, §2, §3, §4, §5

[10] = ACE complex stability, β-CD; settings: 30 mM phosphate buffer pH 7.4, 25 °C, 15 kV, 215 nm
Method: as §1, §2, §3, §4, §5

[11] = ACE complex stability, HP-β-CD; settings: hydroxypropylated-β-CD DS~4.5, 30 mM phosphate buffer pH 7.4, 25 °C
Method: as §1, §2
as §3, with “measurements. […]” for “measurements.”

| Compound | complex stability constant (Kstab) with PYR-β-CD [1] | complex stability constant (Kstab) with HxDMS-α-CD [2] | complex stability constant (Kstab) with SBE-β-CD DS~4 [3] | complex stability constant (Kstab) with CM-α-CD [4] | complex stability constant (Kstab) with HMDiSu-β-CD [5] | complex stability constant (Kstab) with HDMS-β-CD [6] | complex stability constant (Kstab) with MePYR-β-CD [7] | complex stability constant (Kstab) with Sualfadex [8] | complex stability constant (Kstab) with Succ-β-CD [9] | complex stability constant (Kstab) with β-CD [10] | complex stability constant (Kstab) with HP-β-CD [11] |
| --- | --- | --- | --- | --- | --- | --- | --- | --- | --- | --- | --- |
| C=C[C@H]1CN2CCc3c([nH]c4cccc(OC)c34)[C@@H]2C[C@@H]1/C(=C\OC)C(=O)OC [Paynantheine, paynantheine] | < 10 M⁻¹ | 110 ± 8 M⁻¹ | 830 ± 50 M⁻¹ | 175 ± 12 M⁻¹ | 350 ± 10 M⁻¹ | 135 ± 14 M⁻¹ | < 10 M⁻¹ | 80 ± 15 M⁻¹ | 360 ± 30 M⁻¹ | 145 ± 15 M⁻¹ | 75 ± 5 M⁻¹ |
| CC[C@@H]1CN2CCc3c([nH]c4cccc(OC)c34)[C@H]2C[C@@H]1/C(=C\OC)C(=O)OC [Speciociliatine, speciociliatine] | < 10 M⁻¹ | 240 ± 20 M⁻¹ | 670 ± 60 M⁻¹ | – | 100 ± 1 M⁻¹ | 105 ± 12 M⁻¹ | < 10 M⁻¹ | 250 ± 45 M⁻¹ | 470 ± 35 M⁻¹ | 35 ± 3 M⁻¹ | 30 ± 3 M⁻¹ |
| CC[C@H]1CN2CCc3c([nH]c4cccc(OC)c34)[C@@H]2C[C@@H]1/C(=C\OC)C(=O)OC [Speciogynine, speciogynine] | < 10 M⁻¹ | 40 ± 4 M⁻¹ | 610 ± 60 M⁻¹ | 135 ± 12 M⁻¹ | 530 ± 10 M⁻¹ | 30 ± 3 M⁻¹ | < 10 M⁻¹ | 75 ± 20 M⁻¹ | 840 ± 80 M⁻¹ | 65 ± 9 M⁻¹ | – |
| mitragynine | < 10 M⁻¹ | 50 ± 10 M⁻¹ | 550 ± 35 M⁻¹ | 155 ± 15 M⁻¹ | 230 ± 25 M⁻¹ | 175 ± 7 M⁻¹ | < 10 M⁻¹ | 200 ± 25 M⁻¹ | 375 ± 20 M⁻¹ | 145 ± 20 M⁻¹ | 35 ± 2 M⁻¹ |
